Values after ≈ are worked out from the molar mass of the structure shown. Values joined by “and” are separate entries in the source; they are usually repeats but may differ in a detail not shown here. Identical values can stand only once. Where a SMILES comes first, the peptide text is derived from it. Bridges are numbered along the chain shown (N, C = ends). Roman numbers before positions name the chains, in order. The star is where a group is joined. Palmitoyl = CCCCCCCCCCCCCCCC(=O)*; Myristoyl = CCCCCCCCCCCCCC(=O)*
What was measured:
[1] = RP-HPLC retention to evaluate the hydrophobicity of lipopeptides; format: physicochemical; conditions: chromatographic, Luna C18(2) 3.0 × 100 mm, 5.0 µm, linear 20–80% acetonitrile in water over 10 min, 0.1% formic acid, 0.5 mL/min, UV 214 nm, used to evaluate hydrophobicity
Method: The crude peptide was lyophilized and subsequently purified by RP-HPLC. The purifications were carried out on a Phenomenex Gemini-NX C18 column (21.20 × 100 mm, 5.0 µm particle size, and 110 Å pore size). Acetonitrile and water, both containing 0.1% of TFA, were used as the mobile phase. UV detection at 214 nm was used. The crude peptides were eluted with a linear 20–80% acetonitrile gradient in deionized water over 60 min at a flow rate of 10.0 mL/min. The purity and identity of the peptides were confirmed with LC-MS analysis. A Waters Alliance e2695 RP-HPLC system (Waters, Milford, MA, USA) with Waters 2998 PDA (Waters, Milford, MA, USA) and Acquity QDA detectors (Empower®3 software, Database Version 7.21.00.00) was used. All analyses were carried out on a Phenomenex, Luna C18(2) column (3.0 × 100 mm, 5.0 µm particle size, 100 Å pore size). The samples were analyzed with a linear 20–80% acetonitrile gradient in deionized water over 10 min at a flow rate of 0.5 mL/min with UV detection at 214 nm. Both eluents contained 0.1% (v/v) of formic acid. The pure fractions (>95%, by HPLC analysis) were collected and lyophilized. The retention time and percentage of ACN (%) at which each peptide was eluted are included in Table 1 to evaluate the hydrophobicity of lipopeptides. The identity of all compounds was confirmed using mass spectrometry (Waters Alliance e2695 system with Acquity QDA detector, Waters, Milford, MA, USA) with electrospray ionization in positive ion mode (ESI-MS). In this mode, a proton is attached to basic moieties (amine groups, guanidine groups). The theoretical mass of the peptide was calculated and then expected ions (m/z—mass to charge ratio) were compared to measured m/z. The results are presented in Table 1, and mass spectra are presented in the Supplementary Materials.

[2] = tested on: Proteus mirabilis PCM 543; assay: MBFIC assay (biofilm formation inhibition, resazurin); format: cell-based; conditions: ca. 5 × 10^8 CFU/mL in MHB II, 37 °C, 18 h, visual, triplicate; for MBFIC P. mirabilis, CL: contact lenses (CL, Etafilcon A hydrogel) in 24-well plates; for MBFIC P. mirabilis, PS: polystyrene plates (PS), 96-well
Method: (§1) To determine the inhibitory effect of antimicrobials on the formation of biofilm on hydrophobic surfaces, the bacterial suspensions of strains (initial inoculum of ca. 5 × 10^8 CFU/mL in MHB II medium supplemented with antimicrobials) were cultured on 96-well PS at 37 °C for 18 h under aerobic conditions. After incubation, the suspensions were aspirated, and the wells were rinsed three times with sterile phosphate buffer PBS (AppliChem, Darmstadt, Germany) in order to remove the planktonic cells. Resazurin (final concentration per sample = 0.005%) was applied as a cell viability reagent for reading the results. In contact with the living cells, the dye is metabolized by bacterial dehydrogenases, resulting in a reduction of blue resazurin to pink resorufin. All assays were performed in triplicate and included the growth controls (positive controls: bacterial suspensions without antimicrobials) and the sterility controls (negative controls: a sterile MBH medium). After 1h of incubation, a visual evaluation of results was made. […] In a preliminary study, it was established that the application of lipopeptides at a concentration found active from visual evaluation caused the reduction of bacterial metabolism to approximately 10% (or less) of the positive control once the results were evaluated with a spectrophotometer. After 1 h of incubation with the dye, absorbance was measured at 570 and 600 nm using a microplate reader (Thermo Fisher Scientific, Waltham, MA, USA). The metabolic activity of bacteria in the samples was measured according to the formula presented in the previous paper.
(§2) The MBFIC assay with CL was applied in order to access the influence of lipopeptides on the biofilm formation on hydrogel surfaces. The entire sterile CL (1-Day Acuvue Moist, containing Etafilcon A., purchased from Johnson & Johnson (Vision Care, Jacksonsville, FL, USA), were placed in 24-well PS (Orange Scientific, Braine-l’ Alleud, Belgium) and the MBFICs were determined according to the above protocol.

[3] = tested on: Escherichia coli ATCC 25922; assay: as above; format: cell-based; conditions: ca. 5 × 10^8 CFU/mL in MHB II, 37 °C, 18 h, visual, triplicate; for MBFIC E. coli, CL: contact lenses (CL, Etafilcon A hydrogel) in 24-well plates; for MBFIC E. coli, PS: polystyrene plates (PS), 96-well
Method: as §1, §2

[4] = tested on: Staphylococcus aureus ATCC 25923; assay: as above; format: cell-based; conditions: ca. 5 × 10^8 CFU/mL in MHB II, 37 °C, 18 h, resazurin, visual, triplicate; for MBFIC S. aureus, CL: contact lenses (CL, Etafilcon A hydrogel) in 24-well plates; for MBFIC S. aureus, PS: polystyrene plates (PS), 96-well
Method: as §1, §2

[5] = tested on: Staphylococcus epidermidis ATCC 14990; assay: as above; format: cell-based; conditions: ca. 5 × 10^8 CFU/mL in MHB II, 37 °C, 18 h, resazurin, visual, triplicate; for MBFIC S. epidermidis, CL: contact lenses (CL, Etafilcon A hydrogel) in 24-well plates; for MBFIC S. epidermidis, PS: polystyrene plates (PS), 96-well
Method: as §1, §2

[6] = tested on: Pseudomonas aeruginosa ATCC 9027; assay: as above; format: cell-based; conditions: ca. 5 × 10^8 CFU/mL in MHB II, 37 °C, 18 h, visual, triplicate; for MBFIC P. aeruginosa, CL: contact lenses (CL, Etafilcon A hydrogel) in 24-well plates; for MBFIC P. aeruginosa, PS: polystyrene plates (PS), 96-well
Method: as §1, §2

[7] = tested on: Enterococcus faecalis ATCC 29212; assay: as above; format: cell-based; conditions: ca. 5 × 10^8 CFU/mL in MHB II, 37 °C, 18 h, visual, triplicate; for MBFIC E. faecalis, CL: contact lenses (CL, Etafilcon A hydrogel) in 24-well plates; for MBFIC E. faecalis, PS: polystyrene plates (PS), 96-well
Method: as §1, §2

[8] = tested on: Proteus mirabilis PCM 543; format: cell-based; conditions: PCM 543, 18 h
Method: (§3) The reference strains of gram-positive and gram-negative bacteria (Table 2) were obtained from the Polish Collection of Microorganisms (Polish Academy of Science, Wroclaw, Poland). The microorganisms were cultured in Muller Hinton Broth II (MHB II, Biocorp, Warsaw, Poland), overnight, at 37 °C. The MICs of synthetic lipopeptides and conventional antimicrobials were determined using the broth microdilution method according to the Clinical and Laboratory Standard Institute (CLSI) guidelines on reference strains. […] The PS were incubated under aerobic conditions at 37 °C for 18 h. The MIC (μg/mL) was assumed as the lowest concentration of the compound that inhibited the growth of the microorganisms. All experiments were performed in triplicate and included the growth and sterility controls.

[9] = tested on: Escherichia coli ATCC 25922; format: cell-based; conditions: ATCC 25922, 18 h
Method: as §3

[10] = tested on: Staphylococcus aureus ATCC 25923; format: cell-based; conditions: ATCC 25923, 18 h
Method: as §3

[11] = tested on: Staphylococcus epidermidis ATCC 14990; format: cell-based; conditions: ATCC 14990, 18 h
Method: as §3

[12] = tested on: Pseudomonas aeruginosa ATCC 9027; format: cell-based; conditions: ATCC 9027, 18 h
Method: as §3

[13] = tested on: Enterococcus faecalis ATCC 29212; format: cell-based; conditions: ATCC 29212, 18 h
Method: as §3

% ACN at which the peptide was eluted [1]	tR' (adjusted retention time) [1]	MIC P. mirabilis [8]	MIC E. coli [9]	MIC S. aureus [10]	MIC S. epidermidis [11]	MIC P. aeruginosa [12]	MIC E. faecalis [13]	Structure (SMILES)	MBFIC P. mirabilis, CL [2]	MBFIC P. mirabilis, PS [2]	MBFIC E. coli, CL [3]	MBFIC E. coli, PS [3]	MBFIC S. aureus, CL [4]	MBFIC S. aureus, PS [4]	MBFIC S. epidermidis, CL [5]	MBFIC S. epidermidis, PS [5]	MBFIC P. aeruginosa, CL [6]	MBFIC P. aeruginosa, PS [6]	MBFIC E. faecalis, CL [7]	MBFIC E. faecalis, PS [7]
43.3%	3.88 min	512 µg/mL (≈ 437 µM)	64 µg/mL (≈ 54.6 µM)	32 µg/mL (≈ 27.3 µM)	4 µg/mL (≈ 3.41 µM)	128 µg/mL (≈ 109 µM)	16 µg/mL (≈ 13.7 µM)	CCCCCCCCCCCCCC(=O)N[C@@H](CCCCN)C(=O)N[C@@H](CCCCN)C(=O)N[C@@H](CSSC[C@H](NC(=O)[C@H](CCCCN)NC(=O)[C@H](CCCCN)NC(=O)CCCCCCCCCCCCC)C(N)=O)C(N)=O [Lipopeptide 3, C14-KKC-NH2] (I: Myristoyl-Lys-Lys-Cys-NH2 / II: Myristoyl-Lys-Lys-Cys-NH2; disulfide I:3-II:3)	512/512 μg/mL	512/512 μg/mL	64 µg/mL	256 µg/mL	32 µg/mL	64 µg/mL	32 µg/mL	64 µg/mL	512/512 μg/mL	512/512 μg/mL	64 µg/mL	256 µg/mL
44.3%	4.06 min	512 µg/mL (≈ 948 µM)	64 µg/mL (≈ 119 µM)	32 µg/mL (≈ 59.3 µM)	8 µg/mL (≈ 14.8 µM)	128 µg/mL (≈ 237 µM)	64 µg/mL (≈ 119 µM)	CCCCCCCCCCCCCCCC(=O)N[C@@H](CCCCN)C(=O)N[C@@H](CCCNC(=N)N)C(N)=O [Lipopeptide 8, C16-KR-NH2] (Palmitoyl-Lys-Arg-NH2)	512/512 μg/mL	512/512 μg/mL	64 μg/mL and 64/64 μg/mL	64 μg/mL and 64/64 μg/mL	16 µg/mL	8 µg/mL	32 µg/mL	16 µg/mL	128 µg/mL	512 µg/mL	64/64 μg/mL	64/64 μg/mL

From paper PMC6835763, “Influence of Short Cationic Lipopeptides with Fatty Acids of Different Chain Lengths on Bacterial Biofilms Formed on Polystyrene and Hydrogel Surfaces” (Pharmaceutics, 2019)
